Experimental data from US20140140931A1, “ANTIOXIDANT, NEUROPROTECTIVE AND ANTINEOPLASTIC NANOPARTICLES COMPRISING A THERAPEUTIC AGENT ON AN AMPHIPHILIC SPACER OR AN AMPHIPHILIC POLYMER” (CEDARS-SINAI MEDICAL CENTER, priority 2011, published 2014).

What was measured:
[1] = system: P-glycoprotein (Pgp); conditions: cited from earlier work
[2] = 30 minutes after administration; cited from earlier work
[3] = cited from earlier work
[4] = system: intracranial U87 MG tumor xenograft; assay: Survival study of mice with intracranial U87 MG GBM xenograft; format: in vivo, athymic nu/nu mice; conditions: i.v. every three days for 4 weeks from day 7 (16 mg/kg/day CPT-TEG-ALA)
Procedure: All animal studies were performed according to Cedars-Sinai Medical Center Institutional Animal Care and Use Committee protocols. Female 6- to 8-week-old athymic nu/nu mice (Charles River Laboratories) were used for all experiments. […] For Intracranial tumor model, mice underwent intracranial stereotactic implantation of U87 MG cells. Mice were anesthetized using a ketamine and dexmedetomidine combination as a single intraperitoneal injection. 10^5 U87 MG cells suspended in 2 μl of PBS were implanted in the right frontal region of the brain using a Hamilton syringe. The animals received intraperitoneal injection of atipamezole to reverse the dexmedetomidine effect. A single subcutaneous injection of buprenorphine was administered for pain relief.
Two perpendicular diameters of the tumor are measured, and the volume is calculated according to the equation: V (mm^3)=L (mm)×W^2 (mm^2)/2, where L is the longest diameter and W is the diameter perpendicular to L. In the intracranial model, the animals (n=8) received intravenous (tail vein) injection of nanoprodrugs (16 mg/kg/day CPT-TEG-ALA) beginning 7 days after tumor implantation every three days for 4 weeks. […] As control, animals received injection of irinotecan, α-tocopherol nanosuspension, and saline
For mouse survival study, log-rank statistical analysis was performed. […]

| Structure (SMILES) | Pgp substrate [1] | Lactone form hydrolyzed to an open ring [2] [%] | Solubility in water [3] | Median survival time [4] [days] |
| --- | --- | --- | --- | --- |
| CCc1c2c(nc3ccc(O)cc13)-c1cc3c(c(=O)n1C2)COC(=O)[C@]3(O)CC [SN38] | substrates |  |  |  |
| CC[C@@]1(O)C(=O)OCc2c1cc1n(c2=O)Cc2cc3ccccc3nc2-1 [camptothecin, (S)-4-ethyl-4-hydroxy-1H-pyran-[3′,4′:6, 7]indolizino[1,2-b]quinoline-3,14(4H, 12H)-dione] |  | 50 | essentially insoluble in water |  |
| CCc1c2c(nc3ccc(OC(=O)N4CCC(N5CCCCC5)CC4)cc13)-c1cc3c(c(=O)n1C2)COC(=O)[C@]3(O)CC [irinotecan] | substrates |  |  | 41.0 |
